Counter-ions that a name gives are not always drawn. Calls of active or inactive are those of the source. Rule as the data show it, for most assays here: actives have a measured Kd and inactives only a lower limit. Some results are limits rather than exact numbers.

For test [1], the target named is Mitogen-activated protein kinase 10 (Homo sapiens, UniProt P53779).
The target of test [2] is Casein kinase II subunit alpha' (Homo sapiens, UniProt P19784).
The target of test [3] is Focal adhesion kinase 1 (Homo sapiens, UniProt Q05397).
In test [4] the target is Casein kinase I isoform delta (Homo sapiens, UniProt P48730).
Sequence of Casein kinase I isoform delta (P48730 whole entry, canonical isoform): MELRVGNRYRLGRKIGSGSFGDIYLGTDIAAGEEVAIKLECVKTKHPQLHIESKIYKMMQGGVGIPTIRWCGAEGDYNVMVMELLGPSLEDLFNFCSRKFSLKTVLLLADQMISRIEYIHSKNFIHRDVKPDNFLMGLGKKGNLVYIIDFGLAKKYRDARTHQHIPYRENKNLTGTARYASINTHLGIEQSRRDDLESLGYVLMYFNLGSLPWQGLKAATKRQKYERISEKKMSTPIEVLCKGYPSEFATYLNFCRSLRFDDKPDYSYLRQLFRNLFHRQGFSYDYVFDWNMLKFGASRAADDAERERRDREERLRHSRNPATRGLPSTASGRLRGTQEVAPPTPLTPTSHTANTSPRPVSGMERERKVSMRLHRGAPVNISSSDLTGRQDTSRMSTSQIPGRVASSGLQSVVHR
In test [5] the target is T1, Serine/threonine-protein kinase TBK1 (Homo sapiens, UniProt Q9UHD2).
T1 sequence (Q9UHD2 whole entry): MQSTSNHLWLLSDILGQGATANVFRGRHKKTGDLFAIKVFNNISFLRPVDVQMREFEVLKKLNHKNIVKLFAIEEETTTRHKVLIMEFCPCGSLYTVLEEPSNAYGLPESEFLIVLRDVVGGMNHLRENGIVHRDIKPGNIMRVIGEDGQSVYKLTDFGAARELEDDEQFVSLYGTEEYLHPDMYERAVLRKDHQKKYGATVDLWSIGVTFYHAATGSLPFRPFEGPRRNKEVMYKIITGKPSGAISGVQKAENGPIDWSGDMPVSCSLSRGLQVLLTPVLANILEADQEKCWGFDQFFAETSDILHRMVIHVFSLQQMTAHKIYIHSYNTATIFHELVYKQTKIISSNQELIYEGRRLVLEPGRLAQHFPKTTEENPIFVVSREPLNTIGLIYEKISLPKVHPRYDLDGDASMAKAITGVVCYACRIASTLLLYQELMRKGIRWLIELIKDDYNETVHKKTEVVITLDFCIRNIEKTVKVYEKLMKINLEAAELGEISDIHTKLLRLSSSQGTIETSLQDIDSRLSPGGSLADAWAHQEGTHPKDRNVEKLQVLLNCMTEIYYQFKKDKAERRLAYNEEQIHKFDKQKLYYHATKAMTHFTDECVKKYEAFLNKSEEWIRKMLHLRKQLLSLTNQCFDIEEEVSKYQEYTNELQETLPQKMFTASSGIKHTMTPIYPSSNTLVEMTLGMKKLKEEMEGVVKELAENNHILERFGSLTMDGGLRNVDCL

Test [6] has as its target Tyrosine-protein kinase Yes (Homo sapiens, UniProt P07947).
Test [7] addresses Mitogen-activated protein kinase kinase kinase 20 (Homo sapiens, UniProt Q9NYL2).
The target in test [8] is Epidermal growth factor receptor (Homo sapiens, UniProt P00533).
Sequence of Epidermal growth factor receptor (P00533 whole entry): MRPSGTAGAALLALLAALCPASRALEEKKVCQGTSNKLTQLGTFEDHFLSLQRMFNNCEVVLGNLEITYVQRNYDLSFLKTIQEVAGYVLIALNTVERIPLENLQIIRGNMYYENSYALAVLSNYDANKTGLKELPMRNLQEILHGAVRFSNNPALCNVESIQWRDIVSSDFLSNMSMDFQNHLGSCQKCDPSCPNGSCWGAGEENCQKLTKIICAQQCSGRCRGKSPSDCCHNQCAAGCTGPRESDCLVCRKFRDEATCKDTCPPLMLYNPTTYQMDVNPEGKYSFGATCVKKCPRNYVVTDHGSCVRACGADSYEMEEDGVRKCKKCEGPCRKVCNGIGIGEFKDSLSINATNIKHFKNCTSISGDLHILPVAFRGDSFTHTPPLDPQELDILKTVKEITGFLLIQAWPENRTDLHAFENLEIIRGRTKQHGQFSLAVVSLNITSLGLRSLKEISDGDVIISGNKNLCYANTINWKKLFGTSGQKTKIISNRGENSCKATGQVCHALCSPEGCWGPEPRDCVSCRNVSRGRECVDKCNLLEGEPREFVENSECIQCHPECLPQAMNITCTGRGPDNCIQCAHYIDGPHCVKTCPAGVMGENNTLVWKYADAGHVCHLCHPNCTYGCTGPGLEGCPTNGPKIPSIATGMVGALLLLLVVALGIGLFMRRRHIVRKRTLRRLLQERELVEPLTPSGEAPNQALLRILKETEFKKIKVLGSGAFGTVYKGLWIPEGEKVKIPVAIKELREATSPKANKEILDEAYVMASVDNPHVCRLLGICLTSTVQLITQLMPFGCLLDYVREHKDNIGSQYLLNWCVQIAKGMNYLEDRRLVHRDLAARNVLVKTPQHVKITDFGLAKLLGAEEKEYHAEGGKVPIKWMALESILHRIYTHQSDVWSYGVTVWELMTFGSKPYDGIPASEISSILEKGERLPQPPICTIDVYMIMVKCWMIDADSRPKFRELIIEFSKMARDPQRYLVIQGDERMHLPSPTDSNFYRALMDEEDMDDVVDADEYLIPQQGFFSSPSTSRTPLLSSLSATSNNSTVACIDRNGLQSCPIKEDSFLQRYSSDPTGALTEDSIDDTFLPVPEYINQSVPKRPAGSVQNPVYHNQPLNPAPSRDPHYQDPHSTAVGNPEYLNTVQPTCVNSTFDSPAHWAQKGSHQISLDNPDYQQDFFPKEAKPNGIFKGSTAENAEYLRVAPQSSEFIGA
The target in test [9] is T2, Probable ATP-dependent RNA helicase DDX6 (Homo sapiens, UniProt P26196).
T2 sequence (P26196 whole entry): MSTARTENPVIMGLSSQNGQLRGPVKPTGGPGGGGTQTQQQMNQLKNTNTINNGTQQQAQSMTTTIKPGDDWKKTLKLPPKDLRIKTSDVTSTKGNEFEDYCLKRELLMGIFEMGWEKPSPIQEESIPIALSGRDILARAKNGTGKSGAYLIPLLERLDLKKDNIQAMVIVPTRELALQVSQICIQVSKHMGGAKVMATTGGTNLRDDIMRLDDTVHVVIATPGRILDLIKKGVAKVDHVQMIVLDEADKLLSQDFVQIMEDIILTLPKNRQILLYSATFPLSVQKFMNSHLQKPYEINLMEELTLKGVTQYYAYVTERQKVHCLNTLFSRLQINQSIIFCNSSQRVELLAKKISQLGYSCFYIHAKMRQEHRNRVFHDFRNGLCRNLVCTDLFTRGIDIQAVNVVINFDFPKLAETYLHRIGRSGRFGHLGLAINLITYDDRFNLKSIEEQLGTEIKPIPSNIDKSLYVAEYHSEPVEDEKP

The target in test [10] is Serine/threonine-protein kinase PAK 4 (Homo sapiens, UniProt O96013).
Test [11] has as its target Serine/threonine-protein kinase/endoribonuclease IRE2 (Homo sapiens, UniProt Q76MJ5).
Test [12] concerns the target T3, Membrane-associated tyrosine- and threonine-specific cdc2-inhibitory kinase (Homo sapiens, UniProt Q99640).
T3 sequence (Q99640 whole entry): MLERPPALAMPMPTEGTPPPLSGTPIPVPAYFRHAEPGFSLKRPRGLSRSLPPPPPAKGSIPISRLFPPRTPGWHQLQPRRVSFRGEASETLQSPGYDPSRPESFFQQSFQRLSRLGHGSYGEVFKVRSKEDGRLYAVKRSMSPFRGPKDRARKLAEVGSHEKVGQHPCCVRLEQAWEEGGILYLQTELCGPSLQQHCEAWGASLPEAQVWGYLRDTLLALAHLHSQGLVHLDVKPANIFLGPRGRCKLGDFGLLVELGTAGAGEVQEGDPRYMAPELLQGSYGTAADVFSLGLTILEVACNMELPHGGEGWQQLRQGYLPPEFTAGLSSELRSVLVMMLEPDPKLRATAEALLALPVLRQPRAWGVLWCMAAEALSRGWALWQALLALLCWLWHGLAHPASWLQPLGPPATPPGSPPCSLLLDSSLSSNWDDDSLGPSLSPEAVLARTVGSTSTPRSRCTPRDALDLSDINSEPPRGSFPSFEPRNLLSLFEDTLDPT

Test [13] has as its target Ephrin type-A receptor 7 (Homo sapiens, UniProt Q15375).
Also: in the data inactive means no Kd found up to 30 µM.

Sequence of Mitogen-activated protein kinase 10 (P53779 whole entry): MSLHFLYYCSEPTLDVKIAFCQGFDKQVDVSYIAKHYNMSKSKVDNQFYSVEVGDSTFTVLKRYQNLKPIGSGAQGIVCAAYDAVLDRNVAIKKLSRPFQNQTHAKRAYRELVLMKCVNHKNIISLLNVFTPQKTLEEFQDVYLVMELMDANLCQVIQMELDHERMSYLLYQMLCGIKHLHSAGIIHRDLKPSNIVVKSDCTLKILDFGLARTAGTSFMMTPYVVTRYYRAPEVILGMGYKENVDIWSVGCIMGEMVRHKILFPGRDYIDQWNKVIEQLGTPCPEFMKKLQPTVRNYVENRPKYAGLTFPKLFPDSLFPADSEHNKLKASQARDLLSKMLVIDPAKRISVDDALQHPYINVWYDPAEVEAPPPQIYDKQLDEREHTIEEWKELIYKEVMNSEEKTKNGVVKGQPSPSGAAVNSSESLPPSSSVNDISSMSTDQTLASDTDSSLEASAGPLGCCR
Sequence of Serine/threonine-protein kinase/endoribonuclease IRE2 (Q76MJ5 whole entry): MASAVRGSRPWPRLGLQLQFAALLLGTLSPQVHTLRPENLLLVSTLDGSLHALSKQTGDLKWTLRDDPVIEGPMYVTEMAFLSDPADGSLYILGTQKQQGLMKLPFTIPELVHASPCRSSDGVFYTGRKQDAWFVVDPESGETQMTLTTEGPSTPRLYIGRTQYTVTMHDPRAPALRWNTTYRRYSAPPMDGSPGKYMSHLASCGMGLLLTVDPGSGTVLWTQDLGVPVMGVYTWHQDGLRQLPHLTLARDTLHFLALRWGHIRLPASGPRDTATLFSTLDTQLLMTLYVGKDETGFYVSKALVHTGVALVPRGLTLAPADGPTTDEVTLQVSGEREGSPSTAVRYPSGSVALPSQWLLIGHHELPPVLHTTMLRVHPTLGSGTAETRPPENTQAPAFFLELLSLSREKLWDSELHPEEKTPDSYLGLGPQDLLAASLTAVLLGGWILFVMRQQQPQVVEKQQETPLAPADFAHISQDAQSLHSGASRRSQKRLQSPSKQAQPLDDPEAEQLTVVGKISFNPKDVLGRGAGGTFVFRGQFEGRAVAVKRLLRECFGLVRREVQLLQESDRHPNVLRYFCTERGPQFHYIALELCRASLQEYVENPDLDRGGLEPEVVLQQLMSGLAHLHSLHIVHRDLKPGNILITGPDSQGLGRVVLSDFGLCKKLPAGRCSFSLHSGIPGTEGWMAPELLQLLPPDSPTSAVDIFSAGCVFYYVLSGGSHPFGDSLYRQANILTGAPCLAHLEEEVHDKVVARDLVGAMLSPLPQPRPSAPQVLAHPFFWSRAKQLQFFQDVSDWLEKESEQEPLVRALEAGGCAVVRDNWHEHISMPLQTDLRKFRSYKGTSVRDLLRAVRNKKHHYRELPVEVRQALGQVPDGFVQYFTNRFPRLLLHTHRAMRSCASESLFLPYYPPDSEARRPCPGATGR
Sequence of Mitogen-activated protein kinase kinase kinase 20 (Q9NYL2 whole entry): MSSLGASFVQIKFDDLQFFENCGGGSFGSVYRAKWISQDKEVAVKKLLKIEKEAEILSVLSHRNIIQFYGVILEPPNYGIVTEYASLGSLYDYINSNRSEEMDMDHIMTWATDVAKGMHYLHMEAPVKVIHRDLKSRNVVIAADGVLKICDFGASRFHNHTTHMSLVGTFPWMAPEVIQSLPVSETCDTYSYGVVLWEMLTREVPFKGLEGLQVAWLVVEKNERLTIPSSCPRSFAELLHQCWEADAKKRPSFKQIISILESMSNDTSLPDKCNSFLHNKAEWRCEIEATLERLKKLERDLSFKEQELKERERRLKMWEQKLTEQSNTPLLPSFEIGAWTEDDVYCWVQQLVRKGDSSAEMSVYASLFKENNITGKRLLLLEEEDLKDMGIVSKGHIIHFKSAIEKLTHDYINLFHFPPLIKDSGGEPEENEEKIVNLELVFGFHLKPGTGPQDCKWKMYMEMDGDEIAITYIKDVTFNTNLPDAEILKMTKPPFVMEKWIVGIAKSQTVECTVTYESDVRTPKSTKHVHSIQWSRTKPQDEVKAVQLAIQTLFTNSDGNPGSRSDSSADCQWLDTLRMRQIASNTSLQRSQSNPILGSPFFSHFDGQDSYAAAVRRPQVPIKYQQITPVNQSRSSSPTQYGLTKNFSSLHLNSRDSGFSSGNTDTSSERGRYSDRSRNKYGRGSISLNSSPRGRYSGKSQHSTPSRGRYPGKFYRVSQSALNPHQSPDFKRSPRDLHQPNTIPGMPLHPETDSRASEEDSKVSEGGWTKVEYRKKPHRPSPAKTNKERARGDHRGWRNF
Sequence of Ephrin type-A receptor 7 (Q15375 whole entry): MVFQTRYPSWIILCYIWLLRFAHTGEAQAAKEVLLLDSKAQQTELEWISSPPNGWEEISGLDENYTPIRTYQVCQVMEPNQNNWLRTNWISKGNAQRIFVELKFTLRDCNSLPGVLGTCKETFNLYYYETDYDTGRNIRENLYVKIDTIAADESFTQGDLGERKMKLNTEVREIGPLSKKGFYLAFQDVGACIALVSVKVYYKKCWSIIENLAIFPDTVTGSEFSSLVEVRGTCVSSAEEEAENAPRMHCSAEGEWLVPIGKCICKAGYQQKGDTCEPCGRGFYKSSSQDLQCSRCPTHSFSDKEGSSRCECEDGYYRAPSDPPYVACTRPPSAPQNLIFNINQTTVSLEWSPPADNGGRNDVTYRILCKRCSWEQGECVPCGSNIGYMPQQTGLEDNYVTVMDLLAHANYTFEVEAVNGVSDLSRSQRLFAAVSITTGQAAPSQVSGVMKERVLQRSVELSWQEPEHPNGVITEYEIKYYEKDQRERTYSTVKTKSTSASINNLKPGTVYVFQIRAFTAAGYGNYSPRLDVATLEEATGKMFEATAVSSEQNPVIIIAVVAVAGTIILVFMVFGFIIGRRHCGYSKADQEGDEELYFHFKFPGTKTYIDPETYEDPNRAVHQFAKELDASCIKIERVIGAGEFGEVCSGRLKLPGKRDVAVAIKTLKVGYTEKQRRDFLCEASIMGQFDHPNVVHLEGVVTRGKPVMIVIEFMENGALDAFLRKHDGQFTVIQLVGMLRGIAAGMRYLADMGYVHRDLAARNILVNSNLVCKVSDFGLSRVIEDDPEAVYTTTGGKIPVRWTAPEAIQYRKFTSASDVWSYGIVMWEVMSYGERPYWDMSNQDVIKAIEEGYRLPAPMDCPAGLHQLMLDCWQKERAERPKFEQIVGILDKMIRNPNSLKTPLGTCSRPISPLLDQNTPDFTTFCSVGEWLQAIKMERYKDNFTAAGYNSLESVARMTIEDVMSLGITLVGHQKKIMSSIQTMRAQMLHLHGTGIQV

As to `C[C@@H](Oc1cc(C(=O)Nc2ccc(C(=O)N3CCN(C)CC3)cc2)nnc1N)c1c(Cl)ccc(F)c1Cl`, the Kd in test [1], in test [2], in [3], in test [4], in test [5] and in test [6] was > 30 µM (inactive) each time. In addition, the Kd in [7], in test [8], in test [9], in [10], in test [11] and in [12] was > 30 µM (inactive) throughout. Moreover, in test [13], the Kd (commonly the concentration at which binding is half-saturated) is > 30 µM (inactive).

With `CC(=O)c1cnc2ccc(-c3cc(Cl)c(O)c(Cl)c3)nc2c1N[C@H]1CC[C@H](CN(C)C)CC1`, the Kd was 0.112 µM (active) in test [1]; 0.01 µM (active) in [2]; 0.118 µM (active) in test [3]; > 30 µM (inactive) in [6]; 0.101 µM (active) in test [7]; > 30 µM (inactive) in test [8]. Moreover, the Kd is > 30 µM (inactive) in test [9]; 0.515 µM (active) in [10]; > 30 µM (inactive) in test [11]; > 30 µM (inactive) in test [12]; 0.016 µM in test [13].

On to `CCNC(=O)C#Cc1ccc2c(c1)NC(=O)/C2=C(\Nc1ccc(CN(C)C)cc1)c1ccccc1`, for which the Kd was > 30 µM (inactive) in test [1]; > 30 µM (inactive) in test [2]; > 30 µM (inactive) in test [3]; > 30 µM (inactive) in [4]; 0.759 µM (active) in [5]; 0.094 µM (active) in [6]. The Kd in test [7], in [8], in test [9], in test [10], in test [11] and in [12] was > 30 µM (inactive) in each case. Besides, in [13], the Kd is > 30 µM (inactive).

Take `C=CC(=O)N1CCC[C@H](n2c(=O)n(-c3ccc(Oc4ccccc4)cc3)c3c(N)ncnc32)C1`: the Kd is > 30 µM (inactive) in [1]; > 30 µM (inactive) in test [2]; > 30 µM (inactive) in test [3]; > 30 µM (inactive) in test [4]; > 30 µM (inactive) in test [5]; 0.005 µM in [6]. For the same compound, the Kd in test [7] is > 30 µM (inactive); in test [8] it was 0.019 µM (active); in [9], > 30 µM (inactive); in test [10], > 30 µM (inactive); in test [11], > 30 µM (inactive); in [12], > 30 µM (inactive). Moreover, the Kd in test [13] was > 30 µM (inactive).

`Cc1nc2cc(-c3nn(C(C)C)c4ncnc(N)c34)ccc2o1`: the Kd in test [1] was > 30 µM (inactive); in test [2], > 30 µM (inactive); in test [3], > 30 µM (inactive); in test [4] it was 0.152 µM (active); in test [5], > 30 µM (inactive); in [6], > 30 µM (inactive). The Kd in test [7], in [8], in [9], in [10], in test [11] and in test [12] was > 30 µM (inactive) each time. For the same compound, the Kd in test [13] was > 30 µM (inactive).

Consider `COCc1c(-c2ccc(NC(=O)Nc3cc(C(F)(F)F)ccc3F)c(F)c2)c2c(N)ncnn2c1CN1CCOCC1`, for which the Kd in [1], in [2], in [3], in test [4], in test [5] and in [6] was > 30 µM (inactive) each time. Further, the Kd in test [7], in test [8], in test [9], in test [10], in test [11] and in test [12] was > 30 µM (inactive) throughout. In [13], the Kd is > 30 µM (inactive).

As to `CCS(=O)(=O)N1CCN(c2ccc(Nc3ncc(C(N)=O)c(NC4CC4)n3)cc2)CC1` [Cerdulatinib Hydrochloride], the Kd in [2] was 16.3 µM (active); in test [3] it was > 30 µM (inactive); in test [4] it was > 30 µM (inactive); in [6], > 30 µM (inactive); in test [7], > 30 µM (inactive); in test [8], > 30 µM (inactive). The Kd in [9] is > 30 µM (inactive); in test [10], 0.851 µM (active); in test [11], > 30 µM (inactive); in [12], > 30 µM (inactive); in test [13] it was > 30 µM (inactive).

As to `Cc1nc(Nc2n[nH]c3c2CN(C(=O)N[C@H](CN(C)C)c2ccccc2)C3(C)C)c2sccc2n1` [PF-03758309], the Kd in [1] was > 30 µM (inactive); in [2] it was > 30 µM (inactive); in test [3] it was > 30 µM (inactive); in test [4] it was > 30 µM (inactive); in test [6], 5.56 µM (active); in [7], > 30 µM (inactive). Besides, the Kd in [8], in [9], in [11], in test [12] and in test [13] was > 30 µM (inactive) throughout.

In the case of `O=C1NC(=O)[C@@H](c2cn3c4c(cccc24)CCC3)[C@@H]1c1c[nH]c2ccccc12` [TIVANTINIB], the Kd in test [1], in [2], in [3], in test [4], in test [5] and in test [6] was > 30 µM (inactive) in each case. Besides, the Kd in [7], in test [8], in [9], in test [10], in test [11] and in test [12] was > 30 µM (inactive) throughout.

Turning to `C[C@@H](NC(=O)c1ncnc(N)c1Cl)c1ncc(C(=O)Nc2cc(C(F)(F)F)c(Cl)cn2)s1` [TOVORAFENIB], the Kd in test [1], in [2], in [3], in [4], in [5] and in test [6] was > 30 µM (inactive) in each case. Further, the dissociation constant Kd is 0.45 µM (active) in test [7]; > 30 µM (inactive) in [8]; > 30 µM (inactive) in test [10]; > 30 µM (inactive) in test [11]; > 30 µM (inactive) in test [12]; > 30 µM (inactive) in [13].

The record behind these values is ChEMBL document CHEMBL3991601, “The target landscape of clinical kinase drugs” (Science, 2017).
